The record followed here is US11649430B2 (priority 2018, dated 2023).

Test [1] relates to A. flavus. In kind it is cell-based, Aspergillus flavus. As to conditions: for germination rate: 0.1 mM, 0.2 mM, 0.4 mM.
The next test has as its system R. solanacearum. In kind it is cell-based, Ralstonia solanacearum. Conditions: WT (GMI1000) strain; 0.4 mM; 24 hours.
The nature of test [2]: Antioxidant Assay (OxiSelect Total Antioxidant Capacity Assay Kit). The test is classed as biochemical. As to conditions: 0-1 mM; compared to uric acid; absorbance 490 nm (Supporting Figure S9). As to the method: Antioxidant Assay: ROS quenching potential of the imizoquins was analyzed using the OxiSelect™ Total Antioxidant Capacity Assay Kit (Cell Biolabs, Inc., San Diego, Calif.) following the manufacturer's instructions. Briefly, 20 μL of diluted uric acid standards (0-1 mM) and imizoquins (0-1 mM) were combined with 180 μL of 1× reaction buffer/well in a Costar® 96 well plate. After mixing thoroughly, an initial absorbance was obtained at 490 nm using a BioTek EPOCH 2 microplate reader with Gen5 acquisition software. Then 50 μL of the 1× copper ion reagent was added into each well and the plate was incubated for 5 minutes on an orbital shaker. To terminate the reaction, 50 μL of 1× stop solution was added and the final absorbance was measured again at 490 nm.

The test system of test [3] is A. flavus. The experiment in a line: Germination ROS assay (H2O2 plus imizoquin A). The test is classed as cell-based, Aspergillus flavus. Conditions: 0.7 mM H2O2, 0.1, 0.2, 0.4 mM compound.
For another test, the system named is A. oryzae. The experiment in a line: Germination assay with purified imizoquins, A. oryzae. In kind it is cell-based, Aspergillus oryzae. As to the method: (§1) Germination Assay: Each strain was grown in triplicate in 2 mL of liquid GMM inoculated with 1×10^5 spores mL^−1 in a well of a sterile Costar® 12-well plate (Corning) and incubated at 30° C. in OKO-Lab microscopic enclosure equipped with a Nikon Eclipse Ti inverted microscope. Germinated spores were observed using a Nikon Plan Fluor 20xPh1 DLL objective and phase-contrast microscope. A spore was considered germinated when the length of the spore protrusion (emerging hyphal tip) exceeded the spore's diameter^15,33. Images were captured hourly using the Nikon NIS Elements AR software package (v. 4.13), and the germination rate was determined by counting germlings per hundred spores. The experiment was repeated three times.
(§2) Germination Assay with Purified Imizoquins. Compounds 1-2 were assessed for their effect on germination of different fungal strains. Each metabolite was dissolved in methanol at a starting concentration of 10 mg mL^−1 and stored at −80° C. Sterile Costar® 96 well plates containing 100 μL of GMM supplemented with various concentrations of purified 1-2 (0.1 mM, 0.2 mM, 0.4 mM, 0.8 mM and 1.2 mM) were inoculated at 1×10^5 spores/well. Spores treated with equivalent volumes of the carrier (methanol) served as negative controls for each experiment. The germination rate (%) was measured as above with each treatment assayed in triplicate.

A further test concerns A. nidulans. Nature of the test: Germination assay with purified imizoquins, A. nidulans. In kind it is cell-based, Aspergillus nidulans. As to the method: as §1, §2
In the next test the test system is A. fumigatus. Nature of the test: Germination assay with purified imizoquins, A. fumigatus. In kind it is cell-based, Aspergillus fumigatus. As to the method:
as §1, §2

Another test deals with Penicillium expansum. Nature of the test: Germination assay with purified imizoquins, Penicillium expansum. In kind it is cell-based. As to the method:
as §1, §2

“Also recorded” adds a separate entry of the source.

Turning to `OO` [H2O2, hydrogen peroxide], the spore survival in the test with A. flavus spores is 50%.
For `COC1=C(O)C(=O)C2=C(C1=O)[C@H]1N[C@@H](Cc3c[nH]c4ccccc34)C(=O)N1C(C(=O)N[C@@H](CC(CO)CO)C(=O)O)C2` (stereo partly shown) [Imizoquin B, imizoquin B], the germination rate entry with A. flavus [1] was “restores germination in the ΔimqK mutant in a dose-dependent manner; also recorded: increased germination of both ΔimqK and WT to above that of untreated OE::imqK”. For the same compound, in the test on R. solanacearum, the “R. solanacearum growth (OD)” value was “decreases R. solanacearum growth modestly”. Further, in test [2], the “antioxidant activity (ROS quenching potential)” value (“antioxidant activity” for short) is on record as “significant antioxidant activities”. The “germination rate in the presence of H2O2” value with A. flavus [3] (WT strain) and in the test on A. flavus [3] (ΔimqK strain) was “protected spores from the germination inhibitory effects of H2O2” in each case.
For `COC1=C(O)C(=O)C2=C(C1=O)[C@H]1N[C@@H](Cc3c[nH]c4ccccc34)C(=O)N1C(C(=O)N[C@@H](CC(C)CO)C(=O)O)C2` (stereo partly shown) [Imizoquin A, imizoquin A], the germination rate result is “restores germination in the ΔimqK mutant in a dose-dependent manner; also recorded: increased germination of both ΔimqK and WT to above that of untreated OE::imqK” with A. flavus [1]; “increases the germination rate” in the test on A. oryzae (A. oryzae (Supporting Figure S8)); “increases the germination rate” in the test on A. nidulans; “increases the germination rate” with A. fumigatus; “increased the germination rate” in the test with Penicillium expansum. Also, the “concentration up to which the germination effect is dose-dependent” value in the test on A. oryzae (A. oryzae), in the test on A. nidulans (A. nidulans), in the test with A. fumigatus (A. fumigatus) and with Penicillium expansum was “about 0.4 mM” throughout. Also, the “R. solanacearum growth (OD)” value in the test with R. solanacearum is reported as “decreases R. solanacearum growth modestly”. For the same compound, the “antioxidant activity” value in test [2] was “significant antioxidant activities”. Also, the “germination rate in the presence of H2O2” value is given as “counteracted the germination inhibitory activity of H2O2” with A. flavus [3] (WT strain); “protected spores from the germination inhibitory effects of H2O2” in the test on A. flavus [3] (WT strain, listed as imizoquin A); “counteracted the germination inhibitory activity of H2O2” in the test with A. flavus [3] (ΔimqK strain); “protected spores from the germination inhibitory effects of H2O2” in the test on A. flavus [3] (ΔimqK strain, listed as imizoquin A).
As for `COc1c(O)cc2c(c1O)CN(C(=O)[C@@H](N)Cc1c[nH]c3ccccc13)[C@H](C(=O)N[C@@H](CC(C)CO)C(=O)O)C2` (stereo partly shown) [TMC-2B, reference compound], the germination entry in the test with A. flavus [1] was “similarly accelerated germination”. The “antioxidant activity” value in test [2] is given as “showed antioxidant properties”.
On the same counts, the results for `COc1c(O)cc2c(c1O)CN(C(=O)[C@@H](N)Cc1c[nH]c3ccccc13)[C@H](C(=O)N[C@@H](CC(CO)CO)C(=O)O)C2` [TMC-2A, reference compound] are “similarly accelerated germination” and “showed antioxidant properties”.
